Assay results reported in patent publication US10081629B2, “Amide derivatives and pharmaceutically acceptable salts thereof, preparation method thereof and medicinal application thereof” (Shanghai Hengrui Pharmaceutical Co., Ltd., priority 2014, dated 2018).

Tests used:
[1] = Pharmacokinetics assay in rats; assay type: in vivo; conditions: both sexes, Sprague-Dawley, rat, plasma, po, SD rats, intragastric, 5 mg/kg; for Vd/F: read-out: Apparent Distribution Volume Vz/F; for AUC: read-out: Area Under Curve AUC; for CL/F: read-out: Clearance CLz/F; for half-life: read-out: Half-Life T½ (converted); for MRT: read-out: Mean Residence Time MRT; for Cmax: read-out: Plasma Conc. Cmax
Method: Rats were used as test animals. The drug concentration in plasma at different time points was determined by LC/MS/MS after administration of the compounds of Example 8, Example 11, Example 14, Example 17, Example 20, Example 27, Example 33, Example 35, Example 36, Example 37 and Example 48 to rats. The pharmacokinetic behavior of the present compounds was studied and evaluated in rats.
Forty four (44) healthy adult Sprague-Dawley (SD) rats, half male and half female, which were purchased from SINO-BRITSH SIPPR/BK LAB. ANIMAL LTD., CO, with Certificate No.: SCXK (Shanghai) 2008-0016, were divided into 11 groups, with 4 rats in each group.
The appropriate amount of test compounds was weighed, and mixed with 25 μL Tween 80 and Labrasol to prepare a 0.6 mg/mL suspension by ultrasonication.
After an overnight fast, 44 SD rats, half male and half female, were divided into 11 groups, and administered intragastrically at a dose of 5.0 mg/kg and an administration volume of 10 mL/kg.
Blood (0.1 mL) was sampled from the orbital sinus before administration and 0.5 h, 1.0 h, 2.0 h, 4.0 h, 6.0 h, 8.0 h, 11.0 h, and 24.0 h after administration. The samples were stored in EDTA anticoagulation tubes, and centrifuged for 5 minutes at 3,500 rpm to separate the blood plasma. The plasma samples were stored at −20° C. The rats were fed 2 hours after administration.
The plasma concentration of the test compounds in rat after intragastric administration was determined by LC-MS/MS. The linearity of the method is 5.00-2000 ng/mL and 1.00-2000 ng/ml, and the minimum of quantification is 5.00 ng/mL and 1.00 ng/mL.
Plasma samples were analyzed after pretreatment by protein precipitation.

[2] = test system: secretion of PGE2 by A549 cells stimulated with IL-1β; experiment: Inhibition of the secretion of PGE2 by A549 cells stimulated with IL-1β; assay type: cell-based; conditions: Homo sapiens, IL-1β 0.2 ng/mL
Excerpt: The method described here was used for determining the inhibition activity of the present compounds on the secretion of PGE2 by A549 cells stimulated with IL-1β.
• 1. PGE2 Assay kit (Cisbio, #62P2APEB) • 2. IL-1β (Peprotech, # AF-200-01B) • 3. Cell line: A549 (ATCC: CCL-185) • 4. FlexStation3 microplate reader. II. Experimental Procedure
On the first day, A549 cells were inoculated in a 96-well plate at 40000/well. On the second day, the culture medium in the 96-well plate was removed and then added with 90 μL of compound diluted with culture medium (the concentration of each compound at seven gradient concentrations was 11111 nM, […], 1.11 nM, 0.11 nM and 0.011 nM). The cells were incubated for 30 minutes at 37° C. in an incubator, and then added with IL-1β to a final concentration of 0.2 ng/mL. Then, the cells were incubated for another 24 hours at 37° C. On the third day, 10 μl of supernatant, 5 μL of PGE2-d2 and 5 μL of anti-PGE2 Cryptate were added into a black 384-well plate, and then incubated at 4° C. overnight. HTRF was determined using Flexstation, and the IC50 of the compounds was obtained by data processing software.
The inhibition activity of the present compounds on the secretion of PGE2 by A549 cells stimulated with IL-1β was determined by the assay described above.

[3] = biological target: human mPGES1 (Homo sapiens (Human), UniProt O14684); experiment: Inhibition activity for human mPGES1 (enzyme assay, PGE2 HTRF); assay type: biochemical; conditions: membrane protein from HEK-293 F transfected with human mPGES1
Method: The method described here is used for determining the inhibition activity of the present compounds for human mPGES1.
• 1. PGE2 Assay kit (Cisbio, #62P2APEB) • 2. Prostaglandin H2 (Sigma, #P7867-1MG) • 3. FlexStation3 microplate reader. II. Experimental Procedure • 1. Obtaining the membrane proteins of mPGES1 enzyme
The cell density of HEK-293 F was grown to 6×10^5 per milliliter and was transferred with the plasmid containing human mPGES1 gene by transfection reagent PEI the next day. The cells were continuously cultured for 72 hours at 37° C. with shaking. After centrifuging at 1100 g for 5 minutes, the cells were harvested. After ultrasonication in an ice bath and centrifugation at 5000 g for 10 minutes, the supernatant was obtained. The supernatant was centrifuged at 100000 g for 1 hour to obtain a precipitate. The precipitate was resuspended with storage buffer containing 10% glycerinum, subpackaged and frozen rapidly under liquid nitrogen, and stored at −80° C. • 2. mPGES1 enzyme assay
mPGES1 was diluted with assay buffer and added into plate at 49 μL/well supplemented with 1 μL of compound (the final concentration of each compound at seven gradient concentrations was 10000 nM, 1000 nM, 100 nM, 10 nM, 1 nM, 0.1 nM and 0.01 nM). […] Then, each well was added with 53.8 μL of 6 mg/mL SnCl2 to quench the reaction. The sample was diluted with dilute buffer at 1:400. 10 μl of diluted sample, 5 μL PGE2-d2 and 5 μL anti-PGE2 Cryptate were added to a black 384-well plate, and incubated at 4° C. overnight. HTRF was determined using Flexstation, and the IC50 of the compounds was obtained by data processing software.
The inhibition activity of the present compounds on mPGES1 was tested by the assay described above.

Sequence of human mPGES1 (O14684 whole entry): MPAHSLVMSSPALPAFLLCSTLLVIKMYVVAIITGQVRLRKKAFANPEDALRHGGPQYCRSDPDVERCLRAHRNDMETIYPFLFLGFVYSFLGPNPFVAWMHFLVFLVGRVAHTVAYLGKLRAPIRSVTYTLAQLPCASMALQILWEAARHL

CCn1c(-c2ccc(C(F)(F)F)cc2)cc2cc(NC(=O)c3cc(CNC(=O)C(C)(C)F)cnc3C(F)F)ccc21 [Example 17, 2-(Difluoromethyl)-N-(1-ethyl-2-(4-(trifluoromethyl)phenyl)-1H-indol-5-yl)-5-(((2-fluoro-2-methyl-propanoyl)amino)methyl)nicotinamide] gave a Vd/F [1] of 20.2 ± 2.6 L/kg, an AUC [1] of 2000 ± 650 ng·h/mL and a CL/F [1] of 45.3 ± 15.3 mL/min/kg. For the same molecule, the half-life [1] was 5.44 ± 1.23 h, the MRT [1] was 10.4 ± 1.9 h and the Cmax [1] was 155 ± 26 ng/mL. The IC50 ([2]; A549, 24 hours) was 12.1 nM and the IC50 [3] was 2.68 nM.
CCn1c(-c2cccc(Cl)c2)cc2nc(NC(=O)c3cc(CNC(=O)C(C)(C)F)cnc3C(F)F)ccc21 [Example 37, N-(2-(3-Chlorophenyl)-1-ethyl-1H-pyrrolo[3,2-b]pyridin-5-yl)-2-(difluoromethyl)-5-(((2-fluoro-2-methyl-propanoyl)amino)methyl)nicotinamide] gave a Vd/F [1] of 1.39 ± 0.17 L/kg, an AUC [1] of 23200 ± 14200 ng·h/mL and a CL/F [1] of 5.44 ± 4.31 mL/min/kg. It also gave a half-life [1] of 4.49 ± 2.93 h, an MRT [1] of 7.34 ± 3.76 h and a Cmax [1] of 2350 ± 676 ng/mL. For the same molecule, the IC50 ([2]; A549, 24 hours) was 22.4 nM and the IC50 [3] was 6.46 nM.
Work on CCn1c(-c2ccc(F)cc2)cc2cc(NC(=O)c3cc(CNC(=O)C(C)(C)C)ccc3Cl)ccc21 [Example 8, 2-Chloro-N-(1-ethyl-2-(4-fluorophenyl)-1H-indol-5-yl)5-((2,2-dimethylpropanoylamino)methyl)-benzamide] yielded a Vd/F [1] of 10.5 ± 4.66 L/kg, an AUC [1] of 2900 ± 1340 ng·h/mL and a CL/F [1] of 32.7 ± 13.1 mL/min/kg. The half-life [1] was 4.69 ± 3.74 h, the MRT [1] was 8.21 ± 4.88 h and the Cmax [1] was 346 ± 155 ng/mL. It also gave an IC50 ([2]; A549, 24 h) of 19.1 nM and an IC50 [3] of 3.88 nM.
Work on Cn1c(-c2ccc(F)cc2)cc2cc(NC(=O)c3cc(CNC(=O)C(C)(C)C)ccc3Cl)ccc21 [Example 11, 2-chloro-N-(2-(4-fluorophenyl)-1-methyl-1H-indol-5-yl)-5-((2,2-dimethylpropanoylamino)methyl)benzamide] yielded a Vd/F [1] of 5.83 ± 1.14 L/kg, an AUC [1] of 7230 ± 5320 ng·h/mL and a CL/F [1] of 19.2 ± 14.1 mL/min/kg. The half-life [1] was 5.27 ± 3.25 h, the MRT [1] was 10.4 ± 5.1 h and the Cmax [1] was 572 ± 167 ng/mL. The IC50 ([2]; A549, 24 hours) was 16.3 nM and the IC50 [3] was 5.14 nM.
Work on Cn1c(-c2cccc(Cl)c2)cc2nc(NC(=O)c3cc(CNC(=O)C(C)(C)F)cnc3C(F)F)ccc21 [Example 35, N-(2-(3-Chlorophenyl)-1-methyl-1H-pyrrolo[3,2-b]pyridin-5-yl)-2-(difluoromethyl)-5-(((2-fluoro-2-methyl-propanoyl)amino)methyl)nicotinamide] yielded a Vd/F [1] of 1.85 ± 0.576 L/kg, an AUC [1] of 37400 ± 36700 ng·h/mL and a CL/F [1] of 4.69 ± 3.72 mL/min/kg. It also gave a half-life [1] of 11.3 ± 14.5 h, an MRT [1] of 18.8 ± 20.6 h and a Cmax [1] of 1510 ± 517 ng/mL. The IC50 ([2]; A549, 24 hours) was 31.6 nM and the IC50 [3] was 4.07 nM.
For Cn1c(-c2ccc(Cl)cc2)cc2cc(NC(=O)c3cc(CNC(=O)C(C)(C)F)cnc3C(F)F)ccc21 [Example 14, N-(2-(4-Chlorophenyl)-1-methyl-1H-indol-5-yl)-2-(difluoromethyl)-5-(((2-fluoro-2-methyl-propanoyl)amino)methyl)nicotinamide], the Vd/F [1] was 17.9 ± 3.12 L/kg, the AUC [1] was 1790 ± 984 ng·h/mL and the CL/F [1] was 56.7 ± 25.4 mL/min/kg. It also gave a half-life [1] of 4.15 ± 1.59 h, an MRT [1] of 9.25 ± 2.24 h and a Cmax [1] of 150 ± 56 ng/mL. It also gave an IC50 ([2]; A549, 24 h) of 20.5 nM and an IC50 [3] of 4.59 nM.
Work on CCn1c(-c2cccc(Cl)c2)cc2cc(NC(=O)c3cc(CNC(=O)C(C)(C)F)cnc3C(F)F)ccc21 [Example 20, N-(2-(3-Chlorophenyl)-1-ethyl-1H-indol-5-yl)-2-(difluoromethyl)-5-(((2-fluoro-2-methyl-propanoyl)amino)methyl)nicotinamide] yielded a Vd/F [1] of 5.41 ± 1.81 L/kg, an AUC [1] of 8240 ± 2280 ng·h/mL and a CL/F [1] of 10.7 ± 2.7 mL/min/kg. For the same molecule, the half-life [1] was 5.94 ± 2 h, the MRT [1] was 11.1 ± 3 h and the Cmax [1] was 681 ± 195 ng/mL. It also gave an IC50 ([2]; A549, 24 hours) of 12.6 nM and an IC50 [3] of 3.54 nM.
Cn1c(-c2cccc(Cl)c2)cc2cc(NC(=O)c3cc(CNC(=O)C(C)(C)F)cnc3C(F)F)ccc21 [Example 33, N-(2-(3-Chlorophenyl)-1-methyl-1H-indol-5-yl)-2-(difluoromethyl)-5-(((2-fluoro-2-methyl-propanoyl)amino)methyl)nicotinamide] gave a Vd/F [1] of 4.82 ± 0.961 L/kg, an AUC [1] of 5720 ± 1210 ng·h/mL and an MRT [1] of 7.6 ± 1.09 h. The Cmax [1] was 557 ± 80 ng/mL, the IC50 ([2]; A549, 24 hours) was 12.8 nM and the IC50 [3] was 5.33 nM.
